Results: patent US20090137496A1, “Use of Active Ingredients Containing Hydroxystilbene for Preventing and/or Treating Osteoporosis” (MATSUSHITA ELECTRIC INSUTRIAL CO., LTD., priority 2005, published 2009)
Entries after “also recorded” stand apart in the source; their conditions may differ.

How the values were obtained:
[1] = Dissolving tests with ERr 731 in ethanol and glycerol; type: physicochemical
[2] = Accumulation of ERr 731 ingredients in dog plasma, 100/300/1000 mg/kg/day, day 1; type: in vivo, dog (beagle); conditions: male and female dogs, ERr 731 100, 300, 1000 mg/kg/day, day 1
Experimental: (§1) These plasma samples were processed as follows: 500 μl of plasma were mixed with 25 μl of an internal standard working solution (2.5 ng/μl rhaponticin or rhapontigenin in methanol) and then mixed with 500 μl of isotonic NaCl solution and 2.5 ml of diethyl ether/butanol (9/1; v/v). After shaking and centrifugation (10 minutes at 4600 rpm), about 2 ml of the supernatant were removed and dried under a stream of nitrogen (at 60° C.). The pellet was taken up in 50 μl of methanol. Addition of 200 μl of distilled water was followed by renewed mixing, and 200 μl were pipetted into autosampler tubes (light-protected). 30 μl of the samples were injected for analysis into an LC-MS/MS system (PE Sciex API 3000). Chromatographic separation of the analytes took place on a Phenomenex Polymer X column with a gradient of an ammonium buffer solution and an acetonitrile/methanol mixture as mobile phase.
On day 1, 5 ml of blood were taken from the animals after 0, 0.5, 1, 2, 4, 8 and 24 hours in each case, and plasma was obtained. The analysis as described in section a) was carried out thereon in order to detect rhaponticin, deoxyrhaponticin, rhapontigenin, deoxyrhapontigenin, resveratrol and piceatannol in blood. The results of the test are depicted in FIG. 2a.

ERα = molecular target: T1, ERα (Homo sapiens, UniProt P03372); experiment: ERα activation, luciferase reporter gene in U2OS-ERα osteosarcoma cells; type: cell-based; conditions: U2OS stably transfected with ERα, 24 h
T1 construct: host or cells: U2OS-ERα (human osteosarcoma), stably transfected, pSG5 vector
T1 sequence (P03372 1-595): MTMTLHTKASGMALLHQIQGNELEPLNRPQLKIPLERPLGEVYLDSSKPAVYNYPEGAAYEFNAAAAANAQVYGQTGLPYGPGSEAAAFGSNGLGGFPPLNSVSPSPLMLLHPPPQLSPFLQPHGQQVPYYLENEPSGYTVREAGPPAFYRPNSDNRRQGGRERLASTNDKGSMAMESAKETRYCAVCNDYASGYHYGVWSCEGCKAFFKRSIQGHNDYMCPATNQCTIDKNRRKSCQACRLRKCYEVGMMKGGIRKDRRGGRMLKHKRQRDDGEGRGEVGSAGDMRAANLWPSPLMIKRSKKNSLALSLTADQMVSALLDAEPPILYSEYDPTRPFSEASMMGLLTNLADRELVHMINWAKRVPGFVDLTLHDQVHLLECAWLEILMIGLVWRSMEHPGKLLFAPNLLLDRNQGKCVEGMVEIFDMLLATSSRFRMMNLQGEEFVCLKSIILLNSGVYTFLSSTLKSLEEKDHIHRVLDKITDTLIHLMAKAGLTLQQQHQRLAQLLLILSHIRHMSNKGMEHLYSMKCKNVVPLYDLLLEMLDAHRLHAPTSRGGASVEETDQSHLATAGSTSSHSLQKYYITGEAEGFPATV
Experimental: U2OS cells are human, epithelially organized osteosarcoma cells originally isolated in 1964 from the tibia of a child by J. Ponten and E. Saksela (Ponten and Saksela 1967: Two established in vitro cell lines from human mesenchymal tumours, Int. J. Cancer 2: 434-447).
A suitable medium for the cells is DMEM/F12 (Dulbecco's modified Eagle's Medium), to which 10% fetal calf serum was added for culturing the cells, and 5% fetal calf serum was added for the actual experiment. The latter was previously made steroid-free (DCC medium) using dextran-coated activated carbon (dextran-coated charcoal; DCC). Incubation took place at 37° C. with 5% v/v CO2. In order to ensure comparability between the individual experiments, the passages of the cells used for the experiments never exceeded 20 after thawing from liquid nitrogen.
Besides native U2OS cells, use was made of U2OS-ERα cells (Schering A G, Berlin) which were stably transfected with ERα (pSG5 vector, Stratagene) and merely required transfection with the reporter gene (ERE)2-tk-Luc (pGL3 basic vector, Promega). […]
After the cells were treated with the test or control substances for 24 h it was possible to measure the luciferase activity as reporter gene using a kit from Promega, as stated by the manufacturer. The protein content was determined using the BCA® kit (Sigma).

ERβ = molecular target: T2, ERβ (Homo sapiens, UniProt Q92731); experiment: ERβ activation in the osteosarcoma cell line U2OS; type: cell-based
T2 construct: host or cells: U2OS (human osteosarcoma)

Solubility statements = type: physicochemical
Source text: Use is made of this for its isolation. Since, besides other organic acids, the root in particular has a high content of oxalic acid (⅔ in water-soluble and ⅓ in bound form), this must be neutralized during the isolation in order to prevent the pH drifting into the acidic range and thus to inhibit premature precipitation of the rhaponticin. This is achieved by using calcium oxide. The latter is employed as quicklime solution with a pH of 12.4-12.6.
Hydroxypropylmethylcellulose (hypromellose USP) or another gel former is allowed to swell with 2-10% by weight in purified water. […] The amount of glycerol may be up to 50% of the weight of the gel. […] If necessary, preservatives (e.g. sorbic acid and its salts) can be added to the gel. Adjustment of the pH is also possible. As alternative to glycerol it is also possible to use 30-86% by volume ethanol.

[3] = Pharmacokinetics of ERr 731 ingredients in the blood of a volunteer after oral intake (plasma LC-MS/MS); type: in vivo, human; conditions: for detection in the blood: oral 10 tablets = 40 mg ERr 731, plasma
Experimental: Subsequently, 10 ml of blood was taken at various times (as indicated in FIG. 1) and the plasma was obtained by centrifugation.
as §1

[4] = Test A: 200 mg of dry extract in 50 ml of glycerol R
[5] = Test B: 200 mg of dry extract in 50 ml of ethanol 30% R
[6] = Test C: 200 mg of dry extract in 50 ml of ethanol 50% R
[7] = Test D: 200 mg of dry extract in 50 ml of ethanol 86% R

T2 sequence (Q92731 whole entry): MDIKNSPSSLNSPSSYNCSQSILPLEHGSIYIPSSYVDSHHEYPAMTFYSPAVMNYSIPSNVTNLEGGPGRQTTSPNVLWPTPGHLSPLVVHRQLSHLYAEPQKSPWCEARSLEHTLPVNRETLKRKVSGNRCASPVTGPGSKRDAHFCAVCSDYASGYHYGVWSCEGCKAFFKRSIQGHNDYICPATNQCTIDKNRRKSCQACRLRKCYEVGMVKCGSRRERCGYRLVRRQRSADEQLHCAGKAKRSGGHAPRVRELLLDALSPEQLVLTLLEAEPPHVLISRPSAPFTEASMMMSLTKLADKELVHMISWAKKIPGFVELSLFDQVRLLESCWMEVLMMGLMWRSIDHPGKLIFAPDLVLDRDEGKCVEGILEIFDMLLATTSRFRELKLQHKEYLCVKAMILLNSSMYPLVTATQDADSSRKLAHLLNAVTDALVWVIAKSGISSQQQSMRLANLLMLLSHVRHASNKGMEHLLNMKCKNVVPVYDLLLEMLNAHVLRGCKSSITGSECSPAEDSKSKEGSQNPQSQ

| SMILES | content found in solution [1, 4] | dissolved, of theory [1, 4] | content found in solution [1, 5] | dissolved, of theory [1, 5] | content found in solution [1, 6] | dissolved, of theory [1, 6] | content found in solution [1, 7] | dissolved, of theory [1, 7] | detection / accumulation (AUC 0-24 h) in dog plasma [2] | solubility in aqueous solutions with an alkaline pH range (Solubility statements; alkaline pH) | behaviour in the acidic pH range (Solubility statements; pH 3.4-3.6) | time of maximum in the blood ([3]; oral 40 mg ERr 731) [h] | detection in the blood [3] | activation of ER-α (ERα) | activation of ERβ (ERβ) |
| --- | --- | --- | --- | --- | --- | --- | --- | --- | --- | --- | --- | --- | --- | --- | --- |
| Oc1cc(O)cc(/C=C/c2ccc(O)c(O)c2)c1 [piceatannol, Piceatannol (astringenin)] |  |  |  |  |  |  |  |  |  |  |  |  |  | no significant effects; also recorded: no activation | activate relatively specifically only the ERβ |
| Oc1ccc(/C=C/c2cc(O)cc(O)c2)cc1 [resveratrol, Resveratrol] |  |  |  |  |  |  |  |  |  |  |  |  |  | no significant effects; also recorded: no activation |  |
| COc1ccc(/C=C/c2cc(O)cc(O)c2)cc1O [rhapontigenin, 3,3′,5-Trihydroxy-4′-methoxystilbene] |  |  |  |  |  |  |  |  | undetectable |  |  |  | could not be found and not |  |  |

Continued, in another order:

| content found in solution [1, 4] | dissolved, of theory [1, 4] | content found in solution [1, 5] | dissolved, of theory [1, 5] | content found in solution [1, 6] | dissolved, of theory [1, 6] | content found in solution [1, 7] | dissolved, of theory [1, 7] | detection / accumulation (AUC 0-24 h) in dog plasma [2] | solubility in aqueous solutions with an alkaline pH range (Solubility statements; alkaline pH) | behaviour in the acidic pH range (Solubility statements; pH 3.4-3.6) | time of maximum in the blood ([3]; oral 40 mg ERr 731) [h] | detection in the blood [3] | SMILES | activation of ER-α (ERα) | activation of ERβ (ERβ) |
| --- | --- | --- | --- | --- | --- | --- | --- | --- | --- | --- | --- | --- | --- | --- | --- |
| 27.1% deoxyrhaponticin | (90.6% of theory) | 25.2% deoxyrhaponticin | (84.2% of theory) | 29.0% deoxyrhaponticin | (97.0% of theory) | 29.5% deoxyrhaponticin | (98.7% of theory) | dose-dependent accumulation |  |  |  |  | COc1ccc(/C=C/c2cc(O)cc(O[C@@H]3O[C@H](CO)[C@@H](O)[C@H](O)[C@H]3O)c2)cc1 [deoxyrhaponticin, 3,5′-Dihydroxy-4′-methoxystilbene 3-O-β-D-glucopyranoside] |  |  |
| 55.1% rhaponticin | (89.0% of theory) | 52.2% rhaponticin | (84.3% of theory) | 58.8% rhaponticin | (95.0% of theory) | 59.8% rhaponticin | (96.6% of theory) | dose-dependent accumulation | readily soluble | precipitated | 3 to 4 | detected; also recorded: detectable | COc1ccc(C=Cc2cc(O)cc(O[C@@H]3O[C@H](CO)[C@@H](O)[C@H](O)[C@H]3O)c2)cc1O [rhaponticin, 3,3′,5-Trihydroxy-4′-methoxystilbene 3-O-β-D-glucopyranoside] |  |  |
